Data published in patent publication US7906522B2, “2-aminoquinazoline derivatives” (Kyowa Hakko Kirin Co., Ltd, priority 2005, dated 2011).

Assays:
[1] = target: T1, Activated human p38α (Homo sapiens, UniProt Q16539); assay: p38MAP kinase inhibition test; assay type: biochemical; details: at a concentration of 1 μmol/L; substrate myelin basic protein, ATP 20 μmol/L, [γ-32P]ATP; read-out: enzyme inhibitory activity
T1 construct: purchased Upstate Biotechnology Inc. 14-251
Outline: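 Phosphorylation of myelin basic protein (20 μg/assay) by the kinase measured via [γ-32P]ATP incorporation at 20 μmol/L ATP, pH 7.2 MOPS buffer, 30° C. for 15 min. Labelled substrate bound to P81 paper, washed, and quantified by scintillation counting; compounds added in DMSO.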

T1 sequence (Q16539 whole entry): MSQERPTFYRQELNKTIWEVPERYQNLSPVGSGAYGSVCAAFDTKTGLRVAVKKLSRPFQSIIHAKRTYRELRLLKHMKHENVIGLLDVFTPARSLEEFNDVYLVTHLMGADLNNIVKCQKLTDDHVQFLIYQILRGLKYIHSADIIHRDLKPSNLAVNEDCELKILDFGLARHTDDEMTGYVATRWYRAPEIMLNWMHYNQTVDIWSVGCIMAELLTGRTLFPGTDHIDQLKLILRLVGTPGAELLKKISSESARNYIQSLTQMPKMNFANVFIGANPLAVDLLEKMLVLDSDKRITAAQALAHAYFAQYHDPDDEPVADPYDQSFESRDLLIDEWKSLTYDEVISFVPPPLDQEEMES

| inhibition at 1 µM [1] [%] | melting point [°C] | Compound |
| --- | --- | --- |
| ≥ 50 | 236 | CC(C)Nc1ncc2cc(-c3cccc(C(=O)Nc4cccc(N(C)C)c4)c3)c(O)cc2n1 [Compound 325, 6-{3-[(3-Dimethylaminophenyl)carbamoyl]phenyl}-7-hydroxy-2-(isopropylamino)quinazoline] |
| ≥ 50 | 175 to 177 | Cc1c(F)cc(C(=O)NC2CC2)cc1-c1cc2cnc(NC(C)C)nc2cc1O [Compound 344, 6-(5-Cyclopropylcarbamoyl-3-fluoro-2-methylphenyl)-7-hydroxy-2-(isopropylamino)quinazoline] |
| ≥ 50 | 169 to 172 | Cc1ccc(NC(=O)c2ccnc(N3CCOCC3)c2)cc1-c1cc2cnc(NC(C)C)nc2cc1O [Compound 346, 7-Hydroxy-2-isopropylamino-6-{2-methyl-5-[(2-morpholinopyridin-4-yl)carbonylamino]phenyl}quinazoline] |
|  | 235 to 236 | Cc1ccc(C(N)=O)cc1-c1cc2cnc(NC(C)C)nc2cc1O [Compound 378, 6-(5-Carbamoyl-2-methylphenyl)-7-hydroxy-2-(isopropylamino)quinazoline] |
| ≥ 50 | 122 to 125 | COc1cc2nc(NC(C)C)ncc2cc1-c1cc(C(=O)NC2CC2)ccc1C [Compound 236, 6-(5-Cyclopropylcarbamoyl-2-methylphenyl)-2-isopropylamino-7-methoxyquinazoline] |
| ≥ 50 | 150 | CC(C)Nc1ncc2cc(-c3cccc(NC(=O)c4cccc(N(C)C)c4)c3)c(O)cc2n1 [Compound 291, 6-{3-[(3-Dimethylaminophenyl)carbonylamino]phenyl}-7-hydroxy-2-(isopropylamino)quinazoline] |
|  | 224 to 226 | Cc1cc(F)ccc1-c1cc(C(=O)Nc2cccc(-c3cc4cnc(NC(C)C)nc4cc3O)c2)ccn1 [Compound 388, 6-{3-[2-(4-Fluoro-2-methylphenyl)pyridin-4-ylcarbonylamino]phenyl}-7-hydroxy-2-(isopropylamino)quinazoline] |
| ≥ 50 | 251 to 253 | COc1c(NC(=O)c2ccc(C)c(-c3cc4cnc(NC(C)C)nc4cc3O)c2)cc(C(C)(C)C)cc1NS(C)(=O)=O [Compound 348, 6-{5-[(5-tert-Butyl-2-methoxy-3-methylsulfonylaminophenyl)carbamoyl]-2-methylphenyl}-7-hydroxy-2-(isopropylamino)quinazoline] |
|  | 157 | CCONC(=O)c1ccc(C)c(-c2cc3cnc(NC(C)C)nc3cc2O)c1 [Compound 380, 6-(5-Ethoxycarbamoyl-2-methylphenyl)-7-hydroxy-2-(isopropylamino)quinazoline] |
|  | 235 to 236 | CC(C)Nc1ncc2cc(-c3cccc(NC(=O)c4cccc(N5CCCC5)c4)c3)c(O)cc2n1 [Compound 376, 7-Hydroxy-2-isopropylamino-6-{3-[3-(pyrrolidin-1-yl)benzoylamino]phenyl}quinazoline] |
| ≥ 50 |  | COc1cc2nc(NC(C)C)ncc2cc1C(=O)c1cccc(F)c1 [Compound 116, 6-(3-Fluorobenzoyl)-2-isopropylamino-7-methoxyquinazoline] |
| ≥ 50 |  | COc1cc2nc(NC(C)C)ncc2cc1-c1cc(NC(C)=O)ccc1C#N [Compound 227, 6-(5-Acetylamino-2-cyanophenyl)-2-isopropylamino-7-methoxyquinazoline] |
| ≥ 50 |  | CCCNC(=O)c1c(OC)c(-c2ccccc2Cl)cc2cnc(NC(C)C)nc12 [Compound 69, 6-(2-Chlorophenyl)-2-isopropylamino-7-methoxy-8-(N-propylaminocarbonyl)quinazoline] |

More lines, now with the values behind:

| Compound | inhibition at 1 µM [1] [%] | melting point [°C] |
| --- | --- | --- |
| CCC(CC)Nc1ncc2cc(-c3cccc(NC(=O)c4ccnc(N5CCOCC5)c4)c3)c(O)cc2n1 [Compound 368, 2-(3-Pentylamino)-7-hydroxy-6-{3-[(2-morpholinopyridin-4-yl)carbonylamino]phenyl}quinazoline] | ≥ 50 | 154 to 155 |
| CC[C@H](C)Nc1ncc2cc(-c3cccc(NC(=O)c4ccnc(N5CCCC5)c4)c3)c(O)cc2n1 [Compound 384, (S)-2-(sec-Butylamino)-7-hydroxy-6-{3-[2-(pyrrolidin-1-yl)pyridin-4-ylcarbonylamino]phenyl}quinazoline] |  | 165 to 168 |
| CS(=O)(=O)N1CCC(Nc2ncc3cc(-c4cccc(O)c4)c(O)cc3n2)CC1 [Compound 247, 7-Hydroxy-6-(3-hydroxyphenyl)-2-[1-(methylsulfonyl)piperidin-4-ylamino]quinazoline] | ≥ 50 | 285 to 290 |
| Cc1cccc(C)c1Nc1ncc2cc(-c3cccc(NC(=O)c4ccnc(N5CCOCC5)c4)c3)c(O)cc2n1 [Compound 312, 2-(2,6-Dimethylanilino)-7-hydroxy-6-{3-[(2-morpholinopyridin-4-yl)carbonylamino]phenyl}quinazoline] | ≥ 50 | 185 |
| CC(C)Nc1ncc2cc(-c3cccc(NC(=O)c4ccnc(N5CCOCC5)c4)c3)c(O)cc2n1 [Compound 290, 7-Hydroxy-2-isopropylamino-6-{3-[(2-morpholinopyridin-4-yl)carbonylamino]phenyl}quinazoline] | ≥ 50 | 258 |
| CC(C)Nc1ncc2cc(-c3cccc(NC(=O)c4ccnc(N5CCCC5)c4)c3)c(O)cc2n1 [Compound 336, 7-Hydroxy-2-isopropylamino-6-{3-[2-(pyrrolidin-1-yl)pyridin-4-ylcarbonylamino]phenyl}quinazoline] | ≥ 50 | 248 to 249 |
| CC(C)Nc1ncc2cc(-c3cccc(C(=O)Nc4ccnc(N5CCCC5)c4)c3)c(O)cc2n1 [Compound 372, 7-Hydroxy-2-isopropylamino-6-{3-[2-(pyrrolidin-1-yl)pyridin-4-ylcarbamoyl]phenyl}quinazoline] |  | 275 to 279 |
| CC(C)Nc1ncc2cc(-c3cccc(NC(=O)c4cc(F)cc(N5CCCC5)c4)c3)c(O)cc2n1 [Compound 351, 6-{3-[3-Fluoro-5-(pyrrolidin-1-yl)benzoylamino]phenyl}-7-hydroxy-2-(isopropylamino)quinazoline] | ≥ 50 | 229 |
| Cc1cc(C)c(Nc2ncc3cc(-c4ccccc4C)c(O)cc3n2)c(C)c1 [Compound 300, 7-Hydroxy-6-(2-methylphenyl)-2-(2,4,6-trimethylanilino)quinazoline] | ≥ 50 | 142 |
| CC(C)Nc1ncc2cc(-c3cccc(C(=O)Nc4ccnc(N5CCOCC5)c4)c3)c(O)cc2n1 [Compound 342, 7-Hydroxy-2-isopropylamino-6-{3-[(2-morpholinopyridin-4-yl)carbamoyl]phenyl}quinazoline] | ≥ 50 | 255 to 257 |
| CC[C@H](C)Nc1ncc2cc(-c3cccc(NC(=O)c4ccnc(N5CCOCC5)c4)c3)c(O)cc2n1 [Compound 363, (S)-2-(sec-butylamino)-7-hydroxy-6-{3-[(2-morpholinopyridin-4-yl)carbonylamino]phenyl}quinazoline] | ≥ 50 | 183 to 184 |
| CCC(CC)Nc1ncc2cc(-c3cccc(NC(=O)c4cccc(N(C)C)c4)c3)c(O)cc2n1 [Compound 366, 6-{3-[(3-Dimethylaminophenyl)carbonylamino]phenyl}-2-(3-pentylamino)-7-hydroxyquinazoline] | ≥ 50 | 152 |
| CC(C)Nc1ncc2cc(-c3cccc(NC(=O)c4cccc(N5CCOCC5)c4)c3)c(O)cc2n1 [Compound 340, 7-Hydroxy-2-isopropylamino-6-[3-(3-morpholinobenzoylamino)phenyl]quinazoline] | ≥ 50 | 230 |
| CC(C)Nc1ncc2cc(-c3cccc(NC(=O)c4cccc(N5CCCCC5)c4)c3)c(O)cc2n1 [Compound 386, 7-Hydroxy-2-isopropylamino-6-{3-[3-(piperidino)benzoylamino]phenyl}quinazoline] |  | 230 |
| CCC(CC)Nc1ncc2cc(-c3cccc(NC(=O)c4ccnc(N5CCCC5)c4)c3)c(O)cc2n1 [Compound 382, 2-(3-Pentylamino)-7-hydroxy-6-{3-[2-(pyrrolidin-1-yl)pyridin-4-ylcarbonylamino]phenyl}quinazoline] |  | 194 |
| CC(C)Nc1ncc2cc(-c3cccc(NC(=O)c4ccnc(N5CCN(C)CC5)c4)c3)c(O)cc2n1 [Compound 374, 7-Hydroxy-2-isopropylamino-6-{3-[2-(4-methylpiperazin-1-yl)pyridin-4-ylcarbonylamino]phenyl}quinazoline] |  | 178 |
| CC(C)Nc1ncc2cc(-c3cccc(NC(=O)c4cc(F)cc(N5CCCCC5)c4)c3)c(O)cc2n1 [Compound 370, 6-{3-[3-Fluoro-5-(piperidino)benzoylamino]phenyl}-7-hydroxy-2-(isopropylamino)quinazoline] |  | 215 to 217 |
| CC(C)Nc1ncc2cc(-c3ccccc3Cl)c(O)c(-c3c(F)cccc3F)c2n1 [Compound 102, 6-(2-Chlorophenyl)-8-(2,6-difluorophenyl)-7-hydroxy-2-(isopropylamino)quinazoline] | ≥ 50 |  |
| COc1cc2nc(NC3CCN(S(C)(=O)=O)CC3)ncc2cc1-c1ccccc1O [Compound 241, 6-(2-Hydroxyphenyl)-7-methoxy-2-[1-(methylsulfonyl)piperidin-4-ylamino]quinazoline] | ≥ 50 |  |
| CCOC(=O)N1CCC(Nc2ncc3cc(C(=O)c4ccccc4)c(O)cc3n2)CC1 [Compound 137, 6-Benzoyl-2-[1-(ethoxycarbonyl)piperidin-4-ylamino]-7-hydroxyquinazoline] | ≥ 50 |  |
| CCN(CC)C(=O)c1c(OC)c(-c2ccccc2Cl)cc2cnc(NC(C)C)nc12 [Compound 68, 6-(2-Chlorophenyl)-8-(N,N-diethylaminocarbonyl)-2-isopropylamino-7-methoxyquinazoline] | ≥ 50 |  |
